Laboratory results taken from PMC9189845, “Structure–Activity Relationships of 8-Hydroxyquinoline-Derived Mannich Bases with Tertiary Amines Targeting Multidrug-Resistant Cancer” (Journal of Medicinal Chemistry, 2022).
Where two headings read alike, the source gives them in different places.

Key:
MES-SA cells = experiment: PrestoBlue viability assay, MES-SA cells; conditions: for pIC50 value MES-SA: MES-SA cells, without TQ
MES-SA/Dx5 cells = experiment: PrestoBlue viability assay, MES-SA/Dx5 cells (MDR, P-gp positive); conditions: for pIC50 value MES-SA/Dx5: MES-SA/Dx5 cells, without TQ
[1] = Homo sapiens, MES-SA, 72 h, read-out: IC50 / μM MES-SA, absence of TQ, 72 h incubation
[2] = Homo sapiens, MES-SA, read-out: pIC50 value MES-SA, MES-SA cells, without TQ (converted)
[3] = Homo sapiens, MES-SA/Dx5, 72 h, read-out: IC50 / μM MES-SA/Dx5, absence of TQ, 72 h incubation
[4] = Homo sapiens, MES-SA/Dx5, read-out: pIC50 value MES-SA/Dx5, MES-SA/Dx5 cells, without TQ (converted)
[5] = selectivity ratio MES-SA vs MES-SA/Dx5, with TQ
[6] = selectivity ratio MES-SA vs MES-SA/Dx5, without TQ
[7] = read-out: IC50 / μM MES-SA, absence of TQ, 72 h incubation
[8] = read-out: IC50 / μM MES-SA/Dx5, absence of TQ, 72 h incubation

Row | Molecule | IC50 (MES-SA cells; [1]) | IC50 (MES-SA cells; [2]) | IC50 (MES-SA/Dx5 cells; [3]) | IC50 (MES-SA/Dx5 cells; [4]) | SR_TQ (MES-SA/Dx5 cells; [5]) | SR (MES-SA/Dx5 cells; [6]) | pIC50 value MES-SA (MES-SA cells) | IC50 (MES-SA cells; [7]) | pIC50 value MES-SA/Dx5 (MES-SA/Dx5 cells) | IC50 (MES-SA/Dx5 cells; [8]) | also measured
1 | CC1CCCCN1Cc1cc(Cl)c2cccnc2c1O (stereo not drawn) [Compound 77] | 2.57 ± 0.1 µM | 2.57 µM | 0.34 ± 0.03 µM | 0.339 µM | 1.51 | 7.57 | – | – | – | – | IC50 (MES-SA cells; Homo sapiens, MES-SA, read-out: IC50 / μM MES-SA (values in parentheses), presence of 1 μM P-gp inhibitor tariquidar (TQ)): 2.35 µM; IC50 (MES-SA cells; Homo sapiens, MES-SA, read-out: pIC50 value MES-SA+TQ, MES-SA cells, with TQ (converted)): 2.34 µM; IC50 (MES-SA/Dx5 cells; Homo sapiens, MES-SA/Dx5, read-out: IC50 / μM MES-SA/Dx5 (values in parentheses), presence of 1 μM P-gp inhibitor tariquidar (TQ)): 1.55 µM; SR (MES-SA_TQ / Dx5_TQ) (values in parentheses) (MES-SA/Dx5 cells; fraction of IC50 in P-gp negative vs positive cells, presence of 1 μM TQ): 1.51
2 | O=Cc1ccc(O)c(CN2CCCCC2)c1 [Compound 61] | > 100 µM | – | > 100 µM | – | – | – | – | – | – | – | –
3 | Oc1ccccc1CN1CCCCC1 [Compound 59] | > 100 µM | – | > 100 µM | – | – | – | – | – | – | – | –
4 | CC1CCN(C(c2cccs2)c2ccc3cccnc3c2O)CC1 (racemic) [Compound 101] | – | – | – | – | – | 0.65 | 4.97 | 10.8 ± 0.18 µM | 4.78 | 16.6 ± 0.81 µM | –
5 | 2-((4-Methylpiperazin-1-yl)methyl)phenol [Compound 72] | – | – | – | – | – | – | – | > 100 µM | – | > 100 µM | –
6 | Oc1c(C(c2ccc(Cl)cc2)N2CCCC2)ccc2cccnc12 (stereo not drawn) [Compound 87] | – | – | – | – | 1.35 | 3 | 4.71 | 19.7 ± 2.25 µM | 5.18 | 6.58 ± 0.53 µM | –
7 | Oc1c(C(c2ccccc2)N2CCOCC2)ccc2cccnc12 (stereo not drawn) [Compound 102] | 21.4 ± 1.01 µM | 21.4 µM | 11.7 ± 1.15 µM | 11.5 µM | – | 1.84 | – | – | – | – | –
8 | CN1CCN(C(c2cccs2)c2ccc3cccnc3c2O)CC1 (stereo not drawn) [Compound 113] | 12.8 ± 1.72 µM | 12.6 µM | 16.79 ± 0.08 µM | 16.6 µM | – | 0.76 | – | – | – | – | –
9 | Oc1c(C(c2ccncc2)N2CCCCC2)ccc2cccnc12 (stereo not drawn) [Compound 93] | – | – | – | – | 1.1 | 1.93 | 4.81 | 16.2 ± 4.33 µM | 5.08 | 8.39 ± 1.09 µM | –
10 | Oc1cccc2cccnc12 [Compound 12, 8-hydroxyquinoline] | – | – | – | – | – | – | – | – | – | – | IC50 (MES-SA cells; Homo sapiens, MES-SA, 72 h, read-out: IC50 / μM MES-SA): 5.04 ± 0.51 µM; IC50 (MES-SA cells; Homo sapiens, MES-SA, read-out: IC50 / μM MES-SA (values in parentheses)): 5.13 ± 0.05 µM; IC50 (MES-SA cells; Homo sapiens, MES-SA, read-out: pIC50 value MES-SA (converted)): 5.01 µM; IC50 (MES-SA cells; Homo sapiens, MES-SA, read-out: pIC50 value MES-SA+TQ (converted)): 5.13 µM; SR (MES-SA/Dx5 cells): 1.66; SR_TQ (MES-SA/Dx5 cells): 2.34; IC50 (MES-SA/Dx5 cells; Homo sapiens, MES-SA/Dx5, 72 h, read-out: IC50 / μM MES-SA/Dx5): 3.04 ± 0.35 µM; IC50 (MES-SA/Dx5 cells; Homo sapiens, MES-SA/Dx5, read-out: IC50 / μM MES-SA/Dx5 (values in parentheses)): 2.2 ± 0.18 µM; IC50 (MES-SA/Dx5 cells; Homo sapiens, MES-SA/Dx5, read-out: pIC50 value MES-SA/Dx5 (converted)): 3.02 µM; IC50 (MES-SA/Dx5 cells; Homo sapiens, MES-SA/Dx5, read-out: pIC50 value MES-SA/Dx5 + TQ (converted)): 2.19 µM
11 | Oc1c(C(c2ccc(C(F)(F)F)cc2)N2CCCC2)ccc2cccnc12 (racemic) [Compound 89] | – | – | – | – | 1.12 | 3.91 | 4.98 | 11.1 ± 3.57 µM | 5.56 | 2.83 ± 0.61 µM | –
12 | CCN1CCN(C(c2ccccn2)c2cc(Cl)c3cccnc3c2O)CC1 (stereo not drawn) [Compound 117] | 28.3 ± 2.32 µM | 28.2 µM | 24.4 ± 3.58 µM | 24 µM | – | 1.16 | – | – | – | – | –
13 | CCOC(=O)C1CCN(Cc2ccc(O)c3ncccc23)CC1 [Compound 48] | 4.62 ± 1.03 µM | 4.47 µM | 3.54 ± 0.72 µM | 3.47 µM | – | 1.31 | – | – | – | – | –
14 | Oc1c(C(c2ccccc2Cl)N2CCCCC2)ccc2cccnc12 (stereo not drawn) [Compound 95] | – | – | – | – | 2.75 | 1.85 | 4.77 | 17.5 ± 4.45 µM | 5.04 | 9.45 ± 2.11 µM | –
15 | OCCN1CCN(C(c2ccccc2)c2ccc3cccnc3c2O)CC1 (stereo not drawn) [Compound 119] | – | – | – | – | 1.7 | 1.53 | 4.69 | 20.7 ± 0.97 µM | 4.88 | 13.5 ± 2.55 µM | –
16 | Oc1c(C(c2ccccc2Cl)N2CCOCC2)ccc2cccnc12 (stereo not drawn) [Compound 105] | – | – | – | – | – | 1.13 | 4.73 | 18.45 ± 0.14 µM | 4.79 | 16.4 ± 1.02 µM | –
17 | Oc1c(C(c2ccccn2)N2CCOCC2)ccc2cccnc12 (stereo not drawn) [Compound 103] | 23.6 ± 3.13 µM | 23.4 µM | 14.6 ± 2.97 µM | 14.1 µM | – | 1.62 | – | – | – | – | –
18 | CN1CCN(Cc2c(O)ccc3ccccc23)CC1 [Compound 75] | > 100 µM | – | > 100 µM | – | – | – | – | – | – | – | –
19 | Oc1c(C(c2ccccc2Br)N2CCCC2)ccc2cccnc12 (racemic) [Compound 88] | – | – | – | – | 1.55 | 1.98 | 4.89 | 13 ± 1.35 µM | 5.18 | 6.6 ± 0.21 µM | –
